Data published in patent US20230406850A1, “CRYSTALLINE FORM OF HETEROCYCLIC COMPOUND, PREPARATION METHOD THEREFOR AND APPLICATION THEREOF” (WUHAN LL SCIENCE AND TECHNOLOGY DEVELOPMENT CO., LTD., priority 2020, published 2023).
Values after ≈ are worked out from the molar mass of the structure shown.

How the values were obtained:
[1] = Solubility in biological media SGF, FaSSIF and FeSSIF; assay type: physicochemical
Description: Compared with other crystalline forms, crystalline forms I, III and V show good solid properties, so their solubility was tested respectively.
10 mg of the sample was weighed, and then 2.0 mL of biological media buffer (i.e. the target concentration is 5 mg/mL) was added to form a suspension. The mixture was put in a constant temperature water bath shaker (37° C., 100 rpm), and sampled 500 μL at 0.5, 2 and 24 hours respectively. After filtration, the pH value and HPLC concentration of filtrate were tested respectively, and the solid sample obtained by filtration was tested by XRPD.

[2] = Dynamic vapor sorption (DVS) hygroscopicity; assay type: physicochemical
Description: The solid was analyzed by DVS using IGA sorp dynamic vapor sorption instrument. • Temperature: 25° C. • Gas flow: 250 mL/min. • Scan cycle: 2. • Minimum test time: 30 min. • Maximum test time: 2 hours. • Waiting for balance: 98%.

## COC(=O)N1CCO[C@@H](Cc2c(-c3c(F)cc(S(N)(=O)=O)cc3F)nc3cc(Cl)ccn23)C1 [Crystalline form III, methyl (S)-2-((7-chloro-2-(2,6-difluoro-4-sulfamoylphenyl)imidazo[1,2-a]pyridin-3-yl)methyl)morpholine-4-carboxylate]
[1]; FaSSIF, 0.5 h
  XRPD of remaining solid: Unchanged
  pH of filtrate: 6.4
[1]; FaSSIF, 0.5 h, 37° C.
  Solubility: 23 µg/mL (≈ 45.9 µM)
[1]; FaSSIF, 2 h
  XRPD of remaining solid: Unchanged
  pH of filtrate: 6.4
[1]; FaSSIF, 2 h, 37° C.
  Solubility: 25 µg/mL (≈ 49.9 µM)
[1]; FaSSIF, 24 h
  XRPD of remaining solid: Unchanged
  pH of filtrate: 6.4
[1]; FaSSIF, 24 h, 37° C.
  Solubility: 33 µg/mL (≈ 65.9 µM)
[1]; FeSSIF, 0.5 h
  XRPD of remaining solid: Unchanged
  pH of filtrate: 4.9
[1]; FeSSIF, 0.5 h, 37° C.
  Solubility: 74 µg/mL (≈ 148 µM)
[1]; FeSSIF, 2 h
  XRPD of remaining solid: Unchanged
  pH of filtrate: 4.8
[1]; FeSSIF, 2 h, 37° C.
  Solubility: 88 µg/mL (≈ 176 µM)
[1]; FeSSIF, 24 h
  XRPD of remaining solid: Unchanged
  pH of filtrate: 4.9
[1]; FeSSIF, 24 h, 37° C.
  Solubility: 120 µg/mL (≈ 240 µM)
[1]; SGF, 37 °C, simulated gastric fluid, thermodynamic from solid, SGF, 0.5 h, 37° C., read-out: Solubility (visual observation)
  solubility at 0.5 h: > 5000 µg/mL
[1]; SGF, 0.5 h
  pH of filtrate: 1.0
[2]
  XRPD before and after the DVS test: no obvious change in the XRPD
[2]; 25° C.
  DVS pattern, behaviour in words: the water content changes little in a wide humidity range
